In patent US20100083405A1, “Method For Controlling Seed Germination In Non-Dormant Seeds And Use Thereof” (priority 2008, published 2010):

Experiments:
WT/35S::HA-ABI5 seeds [1] = assay: Germination assay, WT/35S::HA-ABI5 seeds; type: in vivo, Arabidopsis
From the text: (§1) Wild type (WT) Arabidopsis (Columbia ecotype) was used. The transgenic Arabidopsis line (Ler ecotype) constitutively overexpressing and accumulating ABI5 protein fused to hemagglutinin (HA) peptide tag (referred to as WT/35S::HA-ABI5 plants) was generated as described in Lopez-Molina et al., 2001, above. Transgenic Arabidopsis lines were generated using the Agrobacterium tumefaciens vacuum-infiltration method (Bechtold and Pelletier, 1998, Methods Mol. Biol. 82, 259-266). Seeds (T1) from infiltrated plants were plated in selection medium as described (Zuo et al., 2000, above; Lopez-Molina et al., 2001, above). Non-dormant seeds are used in absence of seed stratification procedure. The infiltration in the plant ovule is performed following the standard “Floral Dip” (Arabidopsis protocol Edited by J M Martinez-Zapater and Julio Salina. Humana Press, “In Planta Agrobacterium-Mediated Transformation of Adult Arabidopsis thaliana Plants by Vacuum infiltration”, Page 259).
(§2) When seeds are sown under “normal conditions” it refers to conditions where seeds are imbibed in a standard germination medium and provided with light (germination assay condition below). “ABA conditions” and “low GA conditions” are respectively conditions where ABA (e.g. 5 μM) and paclobutrazol (e.g. 5 μM, PAC), an inhibitor of GA synthesis, are added to the medium. […]

WT seed = assay: Germination assay, WT seeds; type: in vivo, Arabidopsis; conditions: low PAC concentrations (0.125 μM)
From the text: as §1, §2

ABI5 [2] = assay: ABI5 mRNA and protein levels (Northern and Western blot) in WT seeds; type: in vivo, Arabidopsis
Description: Total RNA extraction was performed as described by Vicient and Delseny, 1999, Anal. Biochem., 268, 412-413. Northern blot hybridizations were by standard procedures; RNA immobilized on membranes was stained with methylene blue and used as a loading control (Sambrook et al., 1989, above). For ABI5, full length ORF DNA probe (SEQ ID NO: 1) were amplified from cDNA with 5′[…] (SEQ ID NO: 8) 5′ […] (SEQ ID NO: 9).
The mRNA and protein expression of ABI5 was characterized in WT (Columbia ecotype) seeds at different times after their imbibition.
Under normal conditions, ABI5 mRNA and protein levels decreased from peak levels in WT dry seeds (DS) to undetectable levels 24 h to 48 h after imbibition as shown respectively by Northern blot (2 μg of total RNA per lane) and Western blot analyses (10 μg of total protein per lane), where protein extracts were stained with red Ponceau prior to incubation with antibodies against ABI5 (Ponceau) (FIGS. 2A and 2B) (Lopez-Molina et al., 2001, above).

HA-ABI5 [3] = assay: HA-ABI5 mobility/phosphorylation (Western blot) in WT/35S::HA-ABI5 seeds; type: in vivo, Arabidopsis
Description: (§3) The methods used were as described in Lopez-Molina et al., 2001, above.
Thus, low GA levels also stimulate ABI5 activity and phosphorylation. […] An antibody to HA was used to reveal HA-ABI5 protein. λ phosphatase was inactivated by heat (65° C. for 20 min).

[4] = test system: WT/35S::HA-ABI5 plants transformed with the ind::HA-PKABA1 DNA construct; assay: Germination assay, WT/35S::HA-ABI5 transformed with ind::HA-PKABA1; type: in vivo, Arabidopsis
Description: All seed batches compared in this study were harvested on the same day from plants grown side by side (i.e. identical environmental conditions). Dry siliques were obtained about 8 weeks after planting and left for a further 4 weeks at room temperature prior to seed harvesting. Seeds were then permanently stored at 4° C. Seeds obtained in this manner lacked dormancy. A minimum of three independently grown seed batches were used for measuring percent TR and ER. For TR and ER assays, seeds were surface sterilized as described in Lopez-Molina and Chua, 2000, above, and sown in plates with MS medium containing 0.8% (wt/vol.) Bacto-Agar (Applichem). Plates were incubated in a climate-controlled room (20-25° C., 16 h light/day, light intensity 80 ME/m^2/s, humidity 70%). Between 100 and 300 seeds were examined with a Stemi 2000 (Zeiss) stereomicroscope and photographed with a high-resolution digital camera (Canon Power G6, 7.1 Megapixels) at different times of seed imbibition. Photographs were enlarged electronically for measurement of TR and ER.
The first primer contains an XhoI site and the HA sequence (MYPYDVPDYASL (SEQ ID NO: 5) of SEQ ID NO:10), while the second contains a SpeI site. Both restriction sites were used for cloning into a plasmid pER8 (AN AF309825) such as described in Zuo et al., 2000, Plant J., 24, 265-273. […]

HA-PKABA1 = HA-PKABA1 protein levels (Western blot) in seeds transformed with ind::HA-PKABA1; type: in vivo, Arabidopsis; conditions: 50 μM 17β-estradiol, 48 h after seed imbibition, normal conditions
From the text: The first primer contains an XhoI site and the HA sequence (MYPYDVPDYASL (SEQ ID NO: 5) of SEQ ID NO:10), while the second contains a SpeI site. Both restriction sites were used for cloning into a plasmid pER8 (AN AF309825) such as described in Zuo et al., 2000, Plant J., 24, 265-273. The resulting ind::HA-PKABA1 binary vector was then transformed into previously described WT/35S::HA-ABI5 line (Zuo et al., 2000, above; Lopez-Molina et al., 2001, above). As a negative control, WT plants were transformed with the same ind::HA-PKABA1 construct.

WT/35S::HA-ABI5 seeds [5] = conditions: low ABA concentration 0.5 μM; cited from earlier work
HA-ABI5 [6] = conditions: low ABA concentration 0.5 μM; cited from earlier work
ABI5 [7] = assay: ABI5 protein levels (Western blot) in gal-3 seeds; type: in vivo, Arabidopsis; conditions: gal-3 seeds treated with GA, as early as 48 hours after imbibition
HA-ABI5 [8] = assay: HA-ABI5 mobility/phosphorylation (Western blot) in WT/35S::HA-ABI5 lines transformed with ind::HA-PKABA1; type: in vivo, Arabidopsis; conditions: excess GA in the medium, inducer present
Description: as §3
The mobility differences of HA-ABI5 protein isolated from WT/35S::HA-ABI5 lines transformed with a ind::HA-PKABA1 DNA construct are analyzed by Western blot under the indicated germination conditions. As observed upon ABA treatment, induction of HA-PKABA1 protein triggered ABI5 phosphorylation, detected as a slower ABI5 protein mobility, which could be eliminated upon phosphatase treatment (FIG. 4B).

HA-ABI5, Q9SJN0 = molecular target: T1, HA-ABI5, Q9SJN0
T1 chain: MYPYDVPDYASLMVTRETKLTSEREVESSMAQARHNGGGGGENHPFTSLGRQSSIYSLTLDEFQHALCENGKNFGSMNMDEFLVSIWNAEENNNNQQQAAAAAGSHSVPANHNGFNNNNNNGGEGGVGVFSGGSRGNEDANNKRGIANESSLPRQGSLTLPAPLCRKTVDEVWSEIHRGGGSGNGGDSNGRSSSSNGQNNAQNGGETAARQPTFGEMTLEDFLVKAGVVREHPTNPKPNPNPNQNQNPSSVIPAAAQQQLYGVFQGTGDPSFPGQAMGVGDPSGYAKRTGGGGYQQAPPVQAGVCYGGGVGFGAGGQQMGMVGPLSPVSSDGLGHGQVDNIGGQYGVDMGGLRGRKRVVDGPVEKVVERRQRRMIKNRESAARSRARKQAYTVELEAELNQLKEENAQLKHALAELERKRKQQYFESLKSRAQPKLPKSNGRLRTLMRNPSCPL

[9] = GA 50 μM added to the germination medium with ABA

## CC(C)(C)[C@@H](O)[C@@H](Cc1ccc(Cl)cc1)n1cncn1 (racemic) [PAC, paclobutrazol]
WT/35S::HA-ABI5 seeds [1]; after one week on 0.125 μM PAC
  seeds germinated: less than 20%
WT seed
  WT seed germination: do not prevent WT seed germination
ABI5 [2]; 5 μM PAC, up to 96 hours after imbibition
  ABI5 expression (mRNA and protein): increased and maintained ABI5 expression
HA-ABI5 [3]; PAC 0.125 μM
  HA-ABI5 migration in SDS-PAGE gels: slower HA-ABI5 migration

## C[C@]12CC[C@@H]3c4ccc(O)cc4CC[C@H]3[C@@H]1CC[C@@H]2O [17β-estradiol]
[4]; 24 h to 56 h upon transfer to medium without inducer (50 μM before)
  germination after removal of the inducer: 100%
HA-PKABA1
  HA-PKABA1 protein levels: could be detected only in presence of the inducer

## CC1=CC(=O)CC(C)(C)[C@@]1(O)/C=C/C(C)=C\C(=O)O [ABA, abscisic acid]
ABI5 [2]; ABA 5 μM, after imbibition
  ABI5 mRNA and protein expression: stimulated
WT/35S::HA-ABI5 seeds [5]
  germination response: hypersensitive responses
HA-ABI5 [6]
  HA-ABI5 phosphorylation: triggered HA-ABI5 phosphorylation

## gibberellins [GA]
WT/35S::HA-ABI5 seeds [1]; [9]
  repression of seed germination imposed by ABA: did not overcome the repression of seed germination imposed by ABA
[4]; additional GA 50 μM in the medium, inducer present
  inducer-imposed germination arrest: did not counteract the inducer-imposed arrest
ABI5 [7]
  ABI5 protein: could not be detected
HA-ABI5 [3]; [9]
  ABA-dependent ABI5 phosphorylation: did not alter ABA-dependent ABI5 phosphorylation
HA-ABI5 [8]
  HA-PKABA1-dependent phosphorylation of ABI5: did not prevent HA-PKABA1-dependent phosphorylation of ABI5

B1: HA-PKABA1 (protein)
chain: MYPYDVPDYASLMDRYEVVRDIGSGNFGVAKLVRDVRTREHFAVKFIERGHKIDEHVQREIMNHRSLKHPNIIRFKEVVLTPTHLAIVMEYASGGELFQRICNAGRFSEDEGRFFFQQLISGVSYCHSMQVCHRDLKLENTLLDGSVAPRLKICDFGYSKSSVLHSQPKSTVGTPAYIAPEVLSRREYDGKVADVWSCGVTLYVMLVGAYPFEDPDEPRNFRKTIARILSVQYSVPDYVRVSMDCIHLLSRIFVGNPQQRITIPEIKNHPWFLKRLPVEMTDEYQRGMQLADMNTPSQSLEEAMAIIQEAQKPGHNALGLAGQVACLGSMDLDDIDFDVDDIDIENSGDFVCPL
HA-ABI5, Q9SJN0
  ABI5 phosphorylation in planta, seen as slower HA-ABI5 mobility on Western blot (SDS-PAGE), sensitive to phosphatase: induction of HA-PKABA1 protein triggered ABI5 phosphorylation, detected as a slower ABI5 protein mobility, which could be eliminated upon phosphatase treatment
